“And” between values parts separate entries of the source, which are not always exact repeats. Identical values can stand only once.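 Tested at 5 concentrations; 48 h exposure; 96-well plates; endpoints linearly interpolated, else capped at highest concentration. GI50 = concentration required for 50% inhibition of growth. TGI: concentration producing complete growth inhibition.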
Legend:
Experiment in all cases: NCI tumour cell line growth inhibition, 48 h
[1] = test system: HCT-116 colon
[2] = test system: NCI/ADR-RES ovarian
[3] = test system: MDA-N
[4] = test system: SW-620 colon
[5] = test system: SF-539 CNS
[6] = test system: HOP-62 NSCLC
[7] = test system: HT29 colon
[8] = test system: SF-295 CNS
[9] = test system: COLO 205 colon
[10] = test system: MALME-3M melanoma

Row | Compound | TGI [1] | TGI [2] | TGI [3] | TGI [4] | TGI [5] | TGI [6] | TGI [7] | TGI [8] | TGI [9] | TGI [10] | GI50 [2] | GI50 [10] | GI50 [4] | GI50 [5] | GI50 [6] | GI50 [7] | GI50 [8] | GI50 [9] | GI50 [1]
1 | O=C(NCCCCCCO)c1cccc2cc3ccccc3nc12 | 33.1 µM | > 100 µM | 12.9 µM | > 100 µM | 33.7 µM | 32.9 µM | 36.6 µM | 32.8 µM | 25.3 µM | – | – | – | – | – | – | – | – | – | –
2 | CC(C)(Cc1ccccc1)N1C(=O)N1C(C)(C)Cc1ccccc1 | > 100 µM | > 100 µM | > 100 µM | > 100 µM | > 100 µM | – | 32.9 µM | – | 77.8 µM | 98.4 µM | – | – | – | – | – | – | – | – | –
3 | COC(=O)[C@@H]1C=C[C@H](NC(C)=O)C1 | > 100 µM | > 100 µM | > 100 µM | > 100 µM | – | > 100 µM | > 100 µM | > 100 µM | > 100 µM | > 100 µM | – | – | – | – | – | – | – | – | –
4 | O=c1oc2cccnc2n1CCCCN1CCN(c2ccccc2)CC1 | > 100 µM | > 100 µM | > 100 µM | > 100 µM | > 100 µM | > 100 µM | > 100 µM | > 100 µM | – | > 100 µM | – | – | – | – | – | – | – | – | –
5 | O=[N+]([O-])c1cc(F)ccc1Sc1ccccc1 | > 10 µM | > 10 µM | > 10 µM | > 10 µM | > 10 µM | > 10 µM | > 10 µM | > 10 µM | > 10 µM | > 10 µM | – | – | – | – | – | – | – | – | –
6 | CC(=O)NC(=O)NC1=NCCC(=O)N1CCc1c[nH]c2ccccc12 | > 100 µM | > 100 µM | > 100 µM | > 100 µM | > 100 µM | > 100 µM | > 100 µM | > 100 µM | > 100 µM | > 100 µM | – | – | – | – | – | – | – | – | –
7 | NNC(=O)Cn1ccnn1 | – | > 100 µM | – | > 100 µM | – | > 100 µM | > 100 µM | > 100 µM | > 100 µM | > 100 µM | – | – | – | – | – | – | – | – | –
8 | O=c1c2cc(Br)ccc2ncn1COCc1ccccc1 | > 100 µM | > 1 µM | – | > 100 µM | > 100 µM | – | > 1 µM | > 100 µM | > 100 µM | – | – | – | – | – | – | – | – | – | –
9 | N#C/C(=C1/c2cc([N+](=O)[O-])ccc2-c2c1cc([N+](=O)[O-])cc2[N+](=O)[O-])N1CCCCC1 | > 100 µM | > 100 µM | > 100 µM | > 100 µM | – | > 100 µM | > 100 µM | > 100 µM | > 100 µM | > 100 µM | – | – | – | – | – | – | – | – | –
10 | O=c1[nH]c2cc([N+](=O)[O-])c(Nc3c4ccccc4nc4ccccc34)c([N+](=O)[O-])c2[nH]1 | 7.39 µM | 10.9 µM | – | 14.7 µM | 13.7 µM | 11.6 µM | 9.33 µM | 11.2 µM | 6.97 µM | 5.09 µM | – | – | – | – | – | – | – | – | –
11 | O=NN1CCCS1(=O)=O | > 100 µM | > 100 µM | – | > 100 µM | > 100 µM | > 100 µM | > 100 µM | > 100 µM | > 100 µM | > 100 µM | – | – | – | – | – | – | – | – | –
12 | CCC1(OC(=O)CN)C(=O)OCc2c1cc1n(c2=O)Cc2cc3cc4c(cc3nc2-1)OCO4 (stereo unspecified) | – | 0.231 µM and 0.0889 µM | – | > 100 µM and 10.2 µM | 0.0161 µM and 0.0165 µM | < 0.01 µM | 0.739 µM and 0.281 µM | 0.0211 µM and < 0.01 µM | 2.56 µM and 1.78 µM | 1.42 µM | < 10 nM | 287 nM | 11.6 nM and 16.5 nM | < 10 nM | < 10 nM | 24.5 nM and 17.1 nM | < 10 nM | 362 nM and 150 nM | –
13 | COc1ccc(C2SCC(=O)N2NC(=O)C(C)Oc2ccc(Cl)cc2Cl)cc1 (stereo unspecified) | > 100 µM | > 100 µM | > 100 µM | > 100 µM | 35.9 µM | 48.2 µM | > 100 µM | > 100 µM | > 100 µM | – | – | – | – | – | – | – | – | – | –
14 | C=CC(OC(C)=O)c1ccc(OC(C)=O)cc1 (stereo unspecified) | 19.4 µM | 54.3 µM | 10.9 µM | – | 4.78 µM | 12.3 µM | 32.7 µM | 22.1 µM | 12.9 µM | 11.2 µM | – | – | – | – | – | – | – | – | –
15 | O=C1/C(=C/c2ccc(O)cc2)CCC1CNc1ccccc1 (stereo unspecified) | 17.5 µM | 37.1 µM | – | 7.11 µM | 29.8 µM | 36.3 µM | 27.7 µM | 29.5 µM | 16.1 µM | 30.6 µM | – | – | – | – | – | – | – | – | –
16 | NC1c2c(Cl)sc(Cl)c2C(=O)C1O (stereo unspecified) | > 100 µM | 90.6 µM | > 100 µM | 50.5 µM | > 100 µM | – | 33.9 µM | > 100 µM | 44.4 µM | 82.4 µM | – | – | – | – | – | – | – | – | –
17 | CC1(C)C=[N+]([O-])C(C)(C)N1O | > 10 µM | > 10 µM | > 10 µM | > 10 µM | – | > 10 µM | > 10 µM | > 10 µM | > 10 µM | > 10 µM | – | – | – | – | – | – | – | – | –
18 | C[PH+](c1nc2ccccc2nc1[PH+](C)C(C)(C)C)C(C)(C)C.C[PH+](c1nc2ccccc2nc1[PH+](C)C(C)(C)C)C(C)(C)C.[Au+].[Cl-] (stereo unspecified) | 0.0613 µM | – | – | 1.18 µM | 1.14 µM | – | – | – | 0.0442 µM | 0.0811 µM | – | 26.3 nM | 35.6 nM | 53 nM | – | 29.4 nM | – | 19.8 nM | 20.5 nM
19 | CCOC(=O)c1c(N)sc2c1C(C(=O)OCC)CCC2 (stereo unspecified) | > 100 µM | – | > 100 µM | > 100 µM | – | > 100 µM | > 100 µM | – | > 100 µM | > 100 µM | – | – | – | – | – | – | – | – | –
20 | C=CCCCCn1c2ccccc2c2c(C)c3cnccc3c(C)c21 | 20.9 µM | 33.7 µM | – | 73.6 µM | 33.5 µM | 35.9 µM | 25.7 µM | 26 µM | 18 µM | 36.8 µM | – | – | – | – | – | – | – | – | –
21 | Cc1nc2cccc(F)c2c(=O)n1-c1nnc(C(F)(F)F)s1 | > 10 µM | > 10 µM | > 10 µM | > 10 µM | > 10 µM | > 10 µM | > 10 µM | > 10 µM | > 10 µM | – | – | – | – | – | – | – | – | – | –
22 | Cc1ccc(/C=C2/NC(=S)SC2=O)cc1 | > 100 µM | > 100 µM | – | > 100 µM | > 100 µM | > 100 µM | > 100 µM | > 100 µM | > 100 µM | – | – | – | – | – | – | – | – | – | –

Source: PubChem BioAssay (NCI)
